The record followed here is patent US20090239271A1, “FERMENTATION BROTH EXTRACTION OF K-252A” (ABBOTT LABORATORIES, priority 2005, published 2009).

The data set in a line: solubility of K-252a in various solvents at 22° C. Format: physicochemical.

Some results are limits rather than exact numbers.

Consider `COC(=O)[C@@]1(O)C[C@H]2O[C@]1(C)n1c3ccccc3c3c4c(c5c6ccccc6n2c5c31)C(=O)NC4` [K-252a, methyl (1R,2S,4R)-2,4-(6,7,12,13-tetrahydro-5H-indolo[2,3-a]pyrrolo[3,4-c]carbazol-5-onediyl)-1-hydroxy-2-methyltetrahydrofuran carboxylate], for which the Solubility runs as follows: (solvent 1% water/acetone) 9.36 mg K-252a/g solvent; (solvent 5% acetone/methanol) 0.90 mg K-252a/g solvent; (solvent 10% MTHF/methanol) 1.20 mg K-252a/g solvent; (solvent 10% acetone/methanol) 1.22 mg K-252a/g solvent; (solvent 10% water/MTHF (kinetic)) 104.07 mg K-252a/g solvent; (solvent 10% water/MTHF (thermodynamic)) 31.97 mg K-252a/g solvent. The Solubility (solvent 10% water/acetone) is 18.25 mg K-252a/g solvent; the Solubility (solvent 10% water/methanol) stood at 0.54 mg K-252a/g solvent; the Solubility (solvent 20% water/acetone) is recorded as 17.78 mg K-252a/g solvent; the Solubility (solvent 20% water/methyl acetate) is given as greater than 17.7 mg K-252a/g solvent; the Solubility (solvent 30% water/acetone) was found to be 12.40 mg K-252a/g solvent; the Solubility (solvent 50% acetone/methanol) is 7.93 mg K-252a/g solvent. The Solubility is, setting by setting: (solvent 75% acetone/methanol) 18.59 mg K-252a/g solvent; (solvent MTHF) 27.99 mg K-252a/g solvent; (solvent acetone) 7.99 mg K-252a/g solvent; (solvent methanol) 0.72 mg K-252a/g solvent; (solvent methyl acetate) greater than 11.7 mg K-252a/g solvent.
